Here are results for seven compounds from ChEMBL document CHEMBL1671643, “Relative strengths of the class 1 integron promoter hybrid 2 and the combinations of strong and hybrid 1 with an active p2 promoter” (2009).

What is called MIC is the lowest concentration found to suppress growth.

Values after ≈ are worked out from the molar mass of the structure shown.

Common to all, as to assay type: functional
Assay [1] deals with Escherichia coli. Put plainly: Antimicrobial activity against Escherichia coli MC4100 harboring weak promoter and active promoter P2 in beta-lactamase GES-1 by Etest.
The subject of assay [2] is Escherichia coli. Put plainly: Antimicrobial activity against Escherichia coli MC4100 harboring promoter hybrid 2 in beta-lactamase GES-1 by Etest.
Assay [3] concerns Escherichia coli. Put plainly: Antimicrobial activity against Escherichia coli MC4100 harboring strong promoter and active promoter P2 in beta-lactamase GES-1 by Etest.
The subject of assay [4] is Escherichia coli. The assay can be described thus: Antimicrobial activity against Escherichia coli MC4100 harboring promoter hybrid 1 in beta-lactamase GES-1 by Etest.
The test system of assay [5] is Escherichia coli. The assay can be described thus: Antimicrobial activity against Escherichia coli MC4100 harboring promoter hybrid 1 and active promoter P2 in beta-lactamase GES-1 by Etest.
In assay [6] the test system is Escherichia coli. Put plainly: Antimicrobial activity against Escherichia coli MC4100 expressing promoterless beta-lactamase GES-1 by Etest.
Assay [7] has as its system Escherichia coli. Put plainly: Antimicrobial activity against Escherichia coli MC4100 harboring a weak promoter in beta-lactamase GES-1 by Etest.
Assay [8] deals with Escherichia coli. The assay can be described thus: Antimicrobial activity against Escherichia coli MC4100 harboring strong promoter in beta-lactamase GES-1 by Etest.

Consider `CCN1CCN(C(=O)N[C@@H](C(=O)N[C@@H]2C(=O)N3[C@@H]2SC(C)(C)[C@@H]3C(=O)O)c2ccccc2)C(=O)C1=O` [PIPERACILLIN], for which the MIC was found to be 12 µg/mL (≈ 23.2 µM) against Escherichia coli [1]; 12 µg/mL (≈ 23.2 µM) against Escherichia coli [2]; 24 µg/mL (≈ 46.4 µM) against Escherichia coli [3]; 4 µg/mL (≈ 7.73 µM) in the assay on Escherichia coli [4]; 16 µg/mL (≈ 30.9 µM) against Escherichia coli [5]; 1 µg/mL (≈ 1.93 µM) with Escherichia coli [6]. The MIC in the assay on Escherichia coli [7] came to 2 µg/mL (≈ 3.86 µM); in the assay on Escherichia coli [8], 24 µg/mL (≈ 46.4 µM).
As for `CC1(C)S[C@@H]2[C@H](NC(=O)[C@H](N)c3ccc(O)cc3)C(=O)N2[C@H]1C(=O)O` [AMOXICILLIN], the MIC in the assay with Escherichia coli [1] was more than 256 µg/mL; against Escherichia coli [2] it was more than 256 µg/mL; against Escherichia coli [3], more than 256 µg/mL; against Escherichia coli [4], more than 256 µg/mL; against Escherichia coli [5], more than 256 µg/mL; with Escherichia coli [6] it was 4 µg/mL (≈ 10.9 µM). Moreover, the MIC against Escherichia coli [7] and against Escherichia coli [8] was more than 256 µg/mL throughout.
`N[C@@H](C(=O)N[C@@H]1C(=O)N2C(C(=O)O)=C(Cl)CS[C@H]12)c1ccccc1` [CEFACLOR ANHYDROUS]: the MIC came out at 24 µg/mL (≈ 65.3 µM) in the assay on Escherichia coli [1]; 24 µg/mL (≈ 65.3 µM) with Escherichia coli [2]; 256 µg/mL (≈ 696 µM) against Escherichia coli [3]; 8 µg/mL (≈ 21.8 µM) in the assay on Escherichia coli [4]; 24 µg/mL (≈ 65.3 µM) against Escherichia coli [5]; 1.5 µg/mL (≈ 4.08 µM) against Escherichia coli [6]. Further, the values for the MIC with Escherichia coli [7] and in the assay on Escherichia coli [8] were 6 µg/mL (≈ 16.3 µM) and 256 µg/mL (≈ 696 µM), respectively.
On to `C[C@H]1[C@H](NC(=O)/C(=N\OC(C)(C)C(=O)O)c2csc(N)n2)C(=O)N1S(=O)(=O)O` [AZTREONAM], for which the MIC in the assay with Escherichia coli [1] was 0.094 µg/mL (≈ 0.216 µM); in the assay on Escherichia coli [2], 0.094 µg/mL (≈ 0.216 µM); in the assay with Escherichia coli [3], 0.25 µg/mL (≈ 0.574 µM); against Escherichia coli [4], 0.047 µg/mL (≈ 0.108 µM); with Escherichia coli [5], 0.125 µg/mL (≈ 0.287 µM); against Escherichia coli [7] it was 0.047 µg/mL (≈ 0.108 µM). For the same compound, in the assay with Escherichia coli [8], the MIC worked out at 0.19 µg/mL (≈ 0.436 µM).
For `CO/N=C(\C(=O)N[C@@H]1C(=O)N2C(C(=O)O)=C(COC(N)=O)CS[C@H]12)c1ccco1` [CEFUROXIME], the MIC is 96 µg/mL (≈ 226 µM) in the assay with Escherichia coli [1]; 128 µg/mL (≈ 302 µM) against Escherichia coli [2]; more than 256 µg/mL against Escherichia coli [3]; 32 µg/mL (≈ 75.4 µM) with Escherichia coli [4]; 256 µg/mL (≈ 603 µM) in the assay with Escherichia coli [5]; 2 µg/mL (≈ 4.71 µM) against Escherichia coli [6]. The MIC in the assay with Escherichia coli [7] is 8 µg/mL (≈ 18.9 µM); in the assay on Escherichia coli [8], more than 256 µg/mL.
Turning to `CC(C)(O/N=C(\C(=O)N[C@@H]1C(=O)N2C(C(=O)[O-])=C(C[n+]3ccccc3)CS[C@H]12)c1csc(N)n1)C(=O)O` [CEFTAZIDIME], the MIC turned out to be 4 µg/mL (≈ 7.32 µM) in the assay with Escherichia coli [1]; 4 µg/mL (≈ 7.32 µM) in the assay with Escherichia coli [2]; 16 µg/mL (≈ 29.3 µM) against Escherichia coli [3]; 1.5 µg/mL (≈ 2.74 µM) with Escherichia coli [4]; 6 µg/mL (≈ 11 µM) against Escherichia coli [5]; 0.064 µg/mL (≈ 0.117 µM) against Escherichia coli [6]. Moreover, the results for the MIC in the assay with Escherichia coli [7] and in the assay with Escherichia coli [8] were 0.75 µg/mL (≈ 1.37 µM) and 12 µg/mL (≈ 22 µM), respectively.
With `CO/N=C(\C(=O)N[C@@H]1C(=O)N2C(C(=O)[O-])=C(C[N+]3(C)CCCC3)CS[C@H]12)c1csc(N)n1` [CEFEPIME], the MIC against Escherichia coli [1] worked out at 0.094 µg/mL (≈ 0.196 µM); against Escherichia coli [2], 0.125 µg/mL (≈ 0.26 µM); against Escherichia coli [3] it was 0.19 µg/mL (≈ 0.395 µM); against Escherichia coli [4] it was 0.064 µg/mL (≈ 0.133 µM); against Escherichia coli [5], 0.125 µg/mL (≈ 0.26 µM); against Escherichia coli [6], 0.032 µg/mL (≈ 0.0666 µM). Also, the MIC in the assay with Escherichia coli [7] amounted to 0.032 µg/mL (≈ 0.0666 µM); in the assay with Escherichia coli [8] it was 0.19 µg/mL (≈ 0.395 µM).
